Results from ChEMBL document CHEMBL3232749, “Exploring the water-binding pocket of the type II dehydroquinase enzyme in the structure-based design of inhibitors” (J Med Chem, 2014).
pKi: −log10 of the molar value.

Columns and labels:
[1] = target: T1, 3-dehydroquinate dehydratase (Helicobacter pylori (strain ATCC 700392 / 26695) (Campylobacterpylori), UniProt Q48255); assay: Reversible competitive inhibition of Helicobacter pylori DHQ2 assessed as conversion of 3-dehydroquinic acid to 3-dehydroshikimic acid by Dixon plot analysis
T1 sequence (Q48255 whole entry): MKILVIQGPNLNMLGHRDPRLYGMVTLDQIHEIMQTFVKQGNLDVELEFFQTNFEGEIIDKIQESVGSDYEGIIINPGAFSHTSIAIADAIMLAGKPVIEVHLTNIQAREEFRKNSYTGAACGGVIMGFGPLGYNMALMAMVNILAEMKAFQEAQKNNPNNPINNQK

[2] = Reversible competitive inhibition of Mycobacterium tuberculosis DHQ2 assessed as conversion of 3-dehydroquinic acid to 3-dehydroshikimic acid by Dixon plot analysis

SMILES	pKi [1]	pKi [2]
O=C(O)[C@]1(O)C=C([C@@H](O)Cc2ccccc2)[C@@H](O)[C@H](O)C1	4.43	4.47
O=C(O)[C@]1(O)C=C(CO)[C@@H](O)[C@H](O)C1	3.55	4.95
O=C(O)[C@]1(O)C=C(CCO)[C@@H](O)[C@H](O)C1	3.73	4.82
O=C(O)[C@]1(O)C=C([C@H](O)Cc2ccccc2)[C@@H](O)[C@H](O)C1	4.48	4.57
O=C(O)[C@]1(O)C=C([C@@H](Cl)Cc2ccccc2)[C@@H](O)[C@H](O)C1	4.39	4.84
O=C(O)[C@]1(O)C=C([C@H](Cl)Cc2ccccc2)[C@@H](O)[C@H](O)C1	4.98	6.32
